Laboratory results taken from patent US12162861B2, “Dopamine D3 receptor selective antagonists/partial agonists; method of making; and use thereof” (THE UNITED STATES OF AMERICA, AS REPRESENTED BY THE …, priority 2016, dated 2024).
Entries after “also recorded” stand apart in the source; their conditions may differ.

System: rats
Assay: Naloxone-precipitated conditioned place aversion in chronic oxycodone treated rats
Format: in vivo, rat
Details: chronic oxycodone-treated rats, 5, 15 mg/kg, 1 hour prior to naloxone, FIG. 6
Excerpt: The place-conditioning apparatus (Med Associates, St Albans, VT) consisted of two compartments (21×28 cm^2) linked by a gray connecting area (21×12.5 cm^2); a sliding door separated each compartment from the connecting area. The two end compartments differed in wall color (black vs white), floor type (grid vs net), and illumination; preference for the end compartments was balanced by using weaker illumination in the reflective (and normally less-preferred) white compartment and stronger illumination in the non-reflective black compartment. The paradigm was further ‘balanced’ by associating the training injections with the white side in half the animals and with the black side in the remaining animals.
The CPA procedures in this study were similar to those described by others (Azar et al., 2003; Olmstead and Burns 2005; 2012). Briefly, one day before drug treatments started, rats (200-250 g) were randomly divided into 6 groups and were allowed to explore their assigned conditioning apparatus for 15 min (preconditioning). […] CPA score was calculated as animals' time spent in drug-paired minus saline-paired compartments, Oxycodone HCl and naloxone HCl were purchased from Sigma Chemical Co. (Saint Louis, MO, USA) and were dissolved in physiological saline.

CCc1cc(Cl)c(OC)c(N2CCN(CC(O)CCNC(=O)c3cc4ccccc4[nH]3)CC2)c1 (racemic) [Compound 29, N-(4-(4-(3-chloro-5-ethyl-2-methoxyphenyl)piperazin-1-yl)-3-hydroxybutyl)-1H-indole-2-carboxamide]
naloxone-precipitated conditioned place aversion: inhibits naloxone-precipitated conditioned place aversion; also recorded: significantly attenuated naloxone-precipitated conditioned place aversion
naloxone-precipitated conditioned place aversion (listed as (±)-29): inhibition of naloxone-precipitated conditioned place aversion
